`COC(=O)c1c(Cl)cccc1Cl` had a logP of 2.79.

With `O=C(O)c1c(F)cccc1F`, the logP stood at 1.59.

With `COC(=O)c1c(C)cccc1C`, the logP came out at 2.55.

`Oc1c(F)cccc1F` displayed a logP of 1.96.

`CSc1ccccc1C(N)=O` yielded a log partition coefficient (logP) of 0.71.

Turning to `Cc1cccc(Cl)c1O`, the logP was 2.8.

`CC(=O)Oc1c(C)cccc1C` showed a logP of 2.32.

`COC(=O)c1c(F)cccc1F` yielded a logP of 1.96.

In turn, `COC(=O)c1ccc(C)cc1` yielded a logP of 2.7.

Turning to `COC(=O)c1ccc(Br)cc1`, the logP worked out at 2.95.

`CC(=O)Oc1c(Cl)cccc1Cl` gave a logP of 2.94.

In turn, `COC(=O)c1ccccc1[N+](=O)[O-]` returned a logP of 1.66.

Regarding `Cc1cccc(C)c1C(=O)O`, the logP came to 2.21.

Turning to `COC(=O)c1cccc(Cl)c1`, the logP came to 2.85.

The compound `Cc1cccc(Cl)c1C(=O)O` had a logP of 2.31.

Take `O=C(O)c1c(Cl)cccc1[N+](=O)[O-]`: the logP is 1.56.

On to `COC(=O)c1ccccc1OC`, for which the logP is 2.04.

Compound `COC(=O)c1c(F)cccc1Cl` displayed a logP of 2.42.

Regarding `COc1cccc(OC(C)=O)c1`, the logP turned out to be 1.61.

Turning to `CCc1cccc(CC)c1OC(C)=O`, the logP was 3.4.

With `N#Cc1ccccc1C(N)=O`, the logP was 0.

Consider `COC(=O)c1ccccc1I`, for which the logP was found to be 2.74.

`COC(=O)c1c(Cl)cccc1[N+](=O)[O-]` returned a logP of 2.21.

Take `CCOc1cccc(OC(C)=O)c1`: the logP came out at 2.08. The logP values of the last two compounds are within 0.2 log units of each other.

Regarding `CCc1cccc(OC(C)=O)c1`, the logP was 2.45.

For `Oc1c(Br)cccc1Br`, the logP was found to be 3.36.

On to `COC(=O)c1cccc(C)c1`, for which the log partition coefficient (logP) turned out to be 2.77.

Compound `CCc1cccc(CC)c1O` had a logP of 3.03.

Consider `COC(=O)c1cccc([N+](=O)[O-])c1`, for which the logP is 1.89.

Take `COC(=O)c1ccc(F)cc1`: the logP is 2.28.

Consider `NC(=O)c1ccccc1[N+](=O)[O-]`, for which the log partition coefficient (logP) is -0.12.

As for `COC(=O)c1ccccc1F`, the logP is 1.82.

`Cc1nc(N)sc1C(=O)CCN(C)C`: the logP turned out to be 1.47.

Compound `COC(=O)c1ccc([N+](=O)[O-])cc1` displayed a logP of 1.89.

The values are drawn from the OPERA property sets (Mansouri et al. 2018).
